One assay concerns the target T1, Dopamine D2 receptor (Rattus norvegicus, UniProt P61169).
T1 construct: The rat striatum was homogenized in 50 mM Tris hydrochloride buffer; from tissue; host or cells: rat striatal membranes
Put plainly: Selectivity for receptors: dopamine D2 receptor, inhibition of [^3 H] raclopride binding to rat striatal membrane. As to conditions: [^3 H] raclopride 1 nM, symbol, no activity in 10 μM, read-out: Dopamine D2 receptor antagonizing action (IC50). On the procedure: (§1) The selectivity for receptors of the quinolinecarboxylic acid derivatives of the present invention was examined by the following method.
The affinity to dopamine 2 (D2) receptor was examined according to the method described in MALMBERG, A. et al., Mol Pharmacol., 43, 749-754 (1993).
The affinity for D2 receptor was studied in terms of the inhibition of [^3 H] raclopride (Daiichi Kagaku Yakuhin Co.) binding to rat striatal membrane. The rat striatum was homogenized in 50 mM Tris hydrochloride buffer (pH 7.4) followed by centrifugation at 48,000 G. The pellet was washed once with Tris hydrochloride buffer. Then the pellet was suspended in 50 mM Tris hydrochloride buffer (containing 120 mM NaCl, 5 mM KCl, 2 mM CaCl2, 1 mM MgCl2, pH 7.4) and provided for use as the membrane preparation. The membrane preparation (0.5 mg protein/ml) was reacted with 1 nM [3H] raclopride at 25° C. for 60 minutes. After the reaction, the membrane was caught by a harvester. Non-specific binding was defined as that taken in the presence of 10 μM haloperidol.

For assay [1], the target named is T2, serotonin 4 receptor (5-HT4) (Cavia porcellus, UniProt O70528).
T2 construct: from tissue; host or cells: longitudinal muscle strips of guinea pig ileum (Harley guinea pigs)
T2 sequence (O70528 whole entry): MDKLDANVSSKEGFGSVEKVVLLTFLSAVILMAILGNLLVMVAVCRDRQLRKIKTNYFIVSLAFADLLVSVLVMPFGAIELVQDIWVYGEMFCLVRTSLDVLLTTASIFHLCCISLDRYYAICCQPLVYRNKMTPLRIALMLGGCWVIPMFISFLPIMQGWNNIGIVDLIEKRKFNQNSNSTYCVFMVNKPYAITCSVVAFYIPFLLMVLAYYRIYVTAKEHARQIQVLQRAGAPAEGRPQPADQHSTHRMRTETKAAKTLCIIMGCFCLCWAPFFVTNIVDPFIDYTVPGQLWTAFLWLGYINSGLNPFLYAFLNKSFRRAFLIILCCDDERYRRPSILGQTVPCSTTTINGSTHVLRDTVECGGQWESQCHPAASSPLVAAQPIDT
In words: Stimulating activity on serotonin 4 receptor (twitch response in guinea pig ileum). The format is cell-based. On the procedure:
Stimulating activity on serotonin 4 receptor
From Harley guinea pigs weighing 250 to 400 g, a section of ileum 10 to 20 cm proximal to the ileocecal junction was removed. Longitudinal muscle strips obtained from the ileum were used for this assay. The preparations were suspended in Krebs' solution at 32 to 34° C., bubbled continuously with 95% O2 and 5% CO2, and subjected to initial tension of about 0.8 g. Responses were recorded isometrically. Twitch responses were evoked by electrical stimulation (0.2 Hz, 1 msec pulse duration). The preparations were stimulated at supramaximal voltage for 2 to 3 hours, and were then allowed to equilibrate for about 1 hour at submaximal voltage. […] The preparations were left for at least 45 minutes before cumulative addition of each agonist.
The quinolinecarboxylic acid derivatives of the present invention were employed as sample compounds. For comparison, the following compounds were employed. These compounds were diluted by dissolving them in distilled water or in DMSO.
The data obtained was analyzed by RS1 (BBN Software Product Co.).

In another assay the target is T3, 5-HT1A receptor (Rattus norvegicus, UniProt P19327).
T3 construct: The rat cerebral cortex was homogenized in 50 mM Tris hydrochloride buffer; from tissue; host or cells: rat cerebral cortex membranes
T3 sequence (P19327 1-422): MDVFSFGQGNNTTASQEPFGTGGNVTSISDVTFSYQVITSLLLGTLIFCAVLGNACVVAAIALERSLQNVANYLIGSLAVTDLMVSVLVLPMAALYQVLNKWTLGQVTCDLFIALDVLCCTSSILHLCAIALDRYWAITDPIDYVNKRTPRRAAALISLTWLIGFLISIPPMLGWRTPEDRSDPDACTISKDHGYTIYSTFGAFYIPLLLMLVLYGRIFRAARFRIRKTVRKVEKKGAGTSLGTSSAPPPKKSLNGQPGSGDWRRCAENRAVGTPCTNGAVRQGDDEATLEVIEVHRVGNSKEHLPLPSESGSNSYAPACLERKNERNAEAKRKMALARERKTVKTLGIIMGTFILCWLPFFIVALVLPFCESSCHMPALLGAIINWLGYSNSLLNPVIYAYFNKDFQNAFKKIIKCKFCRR
Put plainly: Selectivity for receptors: 5-HT1A receptor, inhibition of [^3 H] 8-OH-DPAT binding to rat cerebral cortex membrane. The note with it: [^3 H] 8-OH-DPAT 1 nM, rat cerebral cortex membrane; symbol, no activity in 10 μM; read-out: 5-HT1A receptor antagonizing action (IC50). On the procedure:
as §1
The affinity to serotonin 1A (5-HT1A) receptor was examined by the method described in […], J. R. et al., Biochem. Pharmacol., 12, 1943-1949 (1986).
The affinity to serotonin 1A (5-HT1A) was examined in terms of inhibition of [^3 H] 8-OH-DPAT (Daiichi Kagaku Yakuhin Co.) binding to rat cerebral cortex membrane. The rat cerebral cortex was homogenized in 50 mM Tris hydrochloride buffer (pH 7.4) followed by centrifugation at 48,000 G.
The pellet was washed once with Tris hydrochloride buffer. Then the pellet was suspended in 50 mM Tris hydrochloride buffer (supplemented with 0.01 mM pargyline and 0.1% ascorbic acid, pH 7.7) and provided for use as the membrane preparation. The membrane specimen was reacted with 1 nM [^3 H] 8-OH-DPAT at 37° C. for 15 minutes. After the reaction, the membrane was caught by a harvester. Non-specific binding was defined as that taken in the presence of 10 μM 5-HT.

In a further assay the target is T4, 5-HT4 receptor (Cavia porcellus, UniProt O70528).
T4 construct: The longitudinal muscle strip from guinea pig was homogenized; from tissue; host or cells: membranes of guinea pig ileum longitudinal muscle strip
T4 sequence (O70528 whole entry): as the sequence (O70528 whole entry) above
In words: Inhibition of 5-HT4 receptor-binding ([^3 H]GR113808 binding in guinea pig ileum). As for the experimental part:
Effect on inhibition of 5-HT4 receptor-binding
The effect on inhibition of 5-HT4 receptor-binding of the quinolinecarboxylic acid derivatives of the present invention was examined according to the method described in GROSSMAN et al., Br. J. Pharmacol., 109, 618 (1993).
The longitudinal muscle strip from guinea pig was homogenized in 0.32M sucrose with a Teflon-glass homogenizer. After centrifugation at 900 G for 10 minutes, the upper fraction of lipids and precipitates was discarded and the supernatant was centrifuged at 100,000 G (48,000 rpm) for an hour. The pellet was resuspended in 50 mM HEPES buffer. After incubation at 37° C. for 30 minutes, the suspension was centrifuged at 48,000 rpm for 20 minutes. The pellet was suspended in HEPES buffer supplemented with 10^-6 M pargyline and 0.1% ascorbic acid. The suspension was used for the binding assay.
Non-specific binding was defined as that taken in the presence of 3×10^-5 M 5-HT. B/F separation was performed through GF/B filter treated with 0.1% polyethyleneimine, using a cell harvester. Washing was performed once.

A further assay addresses T5, 5-HT3 receptor (Rattus norvegicus, UniProt P35563).
T5 construct: The rat cerebral cortex was homogenized in 50 mM Tris hydrochloride buffer; from tissue; host or cells: rat cerebral cortex membranes
T5 sequence (P35563 24-483): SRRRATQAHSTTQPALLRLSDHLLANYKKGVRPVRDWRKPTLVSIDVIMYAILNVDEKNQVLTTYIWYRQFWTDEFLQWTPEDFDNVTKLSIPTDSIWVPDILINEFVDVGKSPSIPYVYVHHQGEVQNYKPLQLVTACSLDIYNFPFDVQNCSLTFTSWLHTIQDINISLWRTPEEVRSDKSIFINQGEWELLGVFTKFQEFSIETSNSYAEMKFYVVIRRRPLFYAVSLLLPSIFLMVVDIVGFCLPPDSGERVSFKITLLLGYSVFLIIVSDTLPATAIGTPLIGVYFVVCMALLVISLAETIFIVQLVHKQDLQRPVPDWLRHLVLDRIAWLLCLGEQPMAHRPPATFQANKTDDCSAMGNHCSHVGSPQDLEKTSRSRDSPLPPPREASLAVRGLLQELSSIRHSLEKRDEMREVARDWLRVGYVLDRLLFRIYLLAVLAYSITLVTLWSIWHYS
In words: Selectivity for receptors: 5-HT3 receptor, inhibition of [^3 H]GR65630 binding to rat cerebral cortex membrane. The note with it: [^3 H]GR65630 0.2 nM, read-out: 5-HT3 receptor antagonizing action (IC50). As for the experimental part:
as §1
The affinity for serotonin 3 receptor was examined by the method described in […], G. J. et al., Nature (London), 330, 746-748 (1987).
The affinity to serotonin 3 (5-HT3) was examined in terms of inhibition of [^3 H]GR65630 binding (Daiichi Kagaku Yakuhin Co.) binding to rat cerebral cortex membrane. The rat cerebral cortex was homogenized in 50 mM Tris hydrochloride buffer (pH 7.4) followed by centrifugation at 48,000 G. The precipitates were washed once with Tris hydrochloride buffer. Then the precipitates were suspended in 50 mM Tris hydrochloride buffer and provided for use as the membrane preparation. The membrane preparation was reacted with 0.2 nM [^3 H]GR65630 at 37° C. for 30 minutes. After the reaction, the membrane was caught by a harvester. Non-specific binding was defined as the binding taken in the presence of 1 μM zacopride.

Where [2] appears, read: twitch response in guinea pig ileum, maximum contraction of sample compound = 100%, read-out: ED50 (concentration enhancing the twitch response by 50%).

Structures can show the parent of a compound that is named as a salt. Where two headings read alike, the source gives them in different places.

T1 sequence (P61169 whole entry): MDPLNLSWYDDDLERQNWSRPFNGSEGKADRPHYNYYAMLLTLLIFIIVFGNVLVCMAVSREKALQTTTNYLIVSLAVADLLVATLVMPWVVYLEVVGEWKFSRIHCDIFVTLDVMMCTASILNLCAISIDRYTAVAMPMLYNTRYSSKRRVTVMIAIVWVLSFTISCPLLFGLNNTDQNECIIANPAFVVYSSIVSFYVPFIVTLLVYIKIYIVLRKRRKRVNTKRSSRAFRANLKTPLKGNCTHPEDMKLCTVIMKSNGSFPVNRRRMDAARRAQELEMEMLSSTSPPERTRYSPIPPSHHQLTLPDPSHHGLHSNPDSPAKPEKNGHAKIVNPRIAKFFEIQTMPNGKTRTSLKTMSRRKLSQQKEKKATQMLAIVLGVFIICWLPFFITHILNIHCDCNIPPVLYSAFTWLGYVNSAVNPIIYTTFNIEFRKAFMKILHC

One may read the IC50 as the midpoint of a concentration-inhibition curve. On to `CC(C)n1c(=O)c(C(=O)NC2CC3CCC(C2)N3CCCO)cc2ccccc21` (stereo not drawn) [Compound 5, Endo-N-(8-(3-hydroxypropyl)-8-azabicyclo[3.2.1]oct-3-yl)-1-isopropyl-2-oxo-1,2-dihydro-3-quinolinecarboxamide], for which the IC50 at Dopamine D2 receptor was more than 10000 nM; on 5-HT1A receptor, more than 10000 nM; at 5-HT4 receptor, 42.2 ± 6.29 nM; at 5-HT3 receptor, 977 nM. In assay [1], this compound registered an EC50 of 32 nM.
Consider `COCCN1[C@@H]2CC[C@H]1C[C@@H](NC(=O)c1cc3ccccc3n(C(C)C)c1=O)C2` [Compound 10, endo-N-(8-(2-methoxyethyl)-8-azabicyclo[3.2.1]oct-3-yl)-1-isopropyl-2-oxo-1,2-dihydro-3-quinolinecarboxamide hydrochloride], for which the IC50 was more than 10000 nM at Dopamine D2 receptor, more than 10000 nM on 5-HT1A receptor, 78.5 ± 14.6 nM at 5-HT4 receptor and 811 nM at 5-HT3 receptor. Besides, the EC50 in assay [1] was 15 nM.
In the case of `CC(C)n1c(=O)c(C(=O)O[C@H]2C[C@H]3CC[C@@H](C2)N3CC2CCCCO2)cc2ccccc21` (stereo partly drawn) [Compound 48, Endo-8-(tetrahydropyran-2-methyl)-8-azabicyclo[3.2.1]oct-3-yl 1-isopropyl-2-oxo-1,2-dihydro-3-quinolinecarboxylate hydrochloride], the EC50 in assay [1] amounted to 55.9 nM.
`CC(C)n1c(=O)c(C(=O)O[C@H]2C[C@H]3CC[C@@H](C2)N3CCOc2ccccc2)cc2ccccc21` [Compound 49, Endo-8-(2-phenoxyethyl)-8-azabicyclo[3.2.1]oct-3-yl 1-isopropyl-2-oxo-1,2-dihydro-3-quinolinecarboxylate hydrochloride] gave an EC50 in assay [1] of 39 nM.
The same measure, in the same setting: then `CCOC(=O)CCCN1[C@@H]2CC[C@H]1C[C@@H](OC(=O)c1cc3ccccc3n(C(C)C)c1=O)C2` [Compound 51, Endo-8-(3-(ethoxycarbonyl)propyl)-8-azabicyclo[3.2.1]oct-3-yl 1-isopropyl-2-oxo-1,2-dihydro-3-quinolinecarboxylate hydrochloride], with 23 nM; and `CC(=O)CN1[C@@H]2CC[C@H]1C[C@@H](OC(=O)c1cc3ccccc3n(C(C)C)c1=O)C2` [Compound 52, Endo-8-(2-oxopropyl)-8-azabicyclo[3.2.1]oct-3-yl 1-isopropyl-2-oxo-1,2-dihydro-3-quinolinecarboxylate hydrochloride], with 24.6 nM.
For the compound `CC(=O)CCCN1[C@@H]2CC[C@H]1C[C@@H](OC(=O)c1cc3ccccc3n(C(C)C)c1=O)C2` [Compound 53, Endo-8-(4-oxopentyl)-8-azabicyclo[3.2.1]oct-3-yl 1-isopropyl-2-oxo-1,2-dihydro-3-quinolinecarboxylate hydrochloride], the EC50 in assay [1] amounted to 26.4 nM.
On to `CC(C)n1c(=O)c(C(=O)O[C@H]2C[C@H]3CC[C@@H](C2)N3CCC#N)cc2ccccc21` [Compound 55, Endo-8-(2-cyanoethyl)-8-azabicyclo[3.2.1]oct-3-yl 1-isopropyl-2-oxo-1,2-dihydro-3-quinolinecarboxylate], for which the EC50 in assay [1] turned out to be 27.3 nM.
The same measure, in the same setting: then `CC(C)n1c(=O)c(C(=O)O[C@H]2C[C@H]3CC[C@@H](C2)N3CC(N)=O)cc2ccccc21` [Compound 56, Endo-8-carbamoylmethyl-8-azabicyclo[3.2.1]oct-3-yl 1-isopropyl-2-oxo-1,2-dihydro-3-quinolinecarboxylate], with 31.4 nM.
With `COc1ccc(N2[C@@H]3CC[C@H]2C[C@@H](OC(=O)c2cc4ccccc4n(C(C)C)c2=O)C3)cc1` [Compound 57, endo-8-(4-methoxyphenyl)-8-azabicyclo[3.2.1]oct-3-yl 1-isopropyl-2-oxo-1,2-dihydro-3-quinolinecarboxylate, reference compound], in assay [1] (setting [2]), the EC50 was more than 3000 nM.
For `CC(C)n1c(=O)c(C(=O)O[C@H]2C[C@H]3CC[C@@H](C2)N3c2nccs2)cc2ccccc21` [Compound 58, endo-8-(2-thiazolyl)-8-azabicyclo[3.2.1]oct-3-yl 1-isopropyl-2-oxo-1,2-dihydro-3-quinolinecarboxylate hydrochloride, reference compound], the EC50 in assay [1] (setting [2]) is 1140 nM.
Consider `COCCOCCN1[C@@H]2CC[C@H]1C[C@@H](OC(=O)c1cc3ccccc3n(C(C)C)c1=O)C2` [Compound 59, Endo-8-(2-(2-methoxyethoxy)ethyl)-8-azabicyclo[3.2.1]oct-3-yl 1-isopropyl-2-oxo-1,2-dihydro-3-quinolinecarboxylate hydrochloride], for which the EC50 in assay [1] was 73.7 nM.

(Values after patent publication US5753673A, “Quinolinecarboxylic acid derivatives” (Taisho Pharmaceutical Co., Ltd., priority 1994, dated 1998).)
